Values joined by “and” are separate entries in the source; they are usually repeats but may differ in a detail not shown here. Equal values may be shown once.
Experiments:
Assay in all cases: ITC reverse titration of protein into compound
Assay type in all cases: binding
[1] = target: Brd2(1)*(Leu110-Ala) (Homo sapiens, UniProt P25440, L110A); set-up: Plasmids of the eight single BET bromodomain constructs Brd2(1), Brd2(2), Brd3(1), Brd3(2), Brd4(1), Brd4(2), Brdt(1) and Brdt(2); His6 (N); made in house; host or cells: E. coli BL21(DE3); conditions: for ΔH Brd2(1)* (Leu110-Ala): ITC 25° C.; for Selectivity factor Kd WT/Kd Leu/Ala: 30° C.
Procedure: (§1) ITC experiments were carried out on a ITC200 instrument from MicroCal™ Experiments were conducted at 3 different temperatures 15° C., 25° C. and 30° C., while stirring at 1000 rpm. Buffers of proteins, peptide and compounds were matched to 20 mM HEPES pH 7.5 at 25° C. and 100 mM NaCl. Frozen protein was buffer exchanged as described for the DSF experiments. Each titration comprised 1 initial injection of 0.4 μl lasting 0.8 s, followed by 19 injections of 2 μl lasting 4 s each at 2 min intervals. The initial injection was discarded during data analysis. Standard and reverse titrations were conducted depending on the binding partners.
(§2) Reverse titrations were conducted to test the binding of the known ligands and the novel chemical probes to the wild types and the mutants. Experiments were carried out either at 25° C. or 30° C. […] In cases where the compound was solubilized in dimethyl sulfoxide, DMSO concentration was adjusted to 1% both in the syringe and in the cell.
(§3) All the data was fitted to a single binding site model using the Microcal LLC ITC200 Origin software provided by the manufacturer to yield enthalpies of binding (ΔH) and binding constants (Kas). Further thermodynamic parameters were calculated from these values (changes in entropy ΔS, changes in free energy AG and dissociation constants (Kds)).

[2] = target: Brd2(2)*(Leu383-Ala) (Homo sapiens, UniProt P25440, L383A); set-up: Plasmids of the eight single BET bromodomain constructs Brd2(1), Brd2(2), Brd3(1), Brd3(2), Brd4(1), Brd4(2), Brdt(1) and Brdt(2); His6 (N); made in house; host or cells: E. coli BL21(DE3); conditions: for ΔH Brd2(2)* (Leu383-Ala) / Kd: ITC 25° C.; for Kd: Kd Brd2(2)* (Leu383-Ala); for Selectivity factor Kd WT/Kd Leu/Ala: 30° C.
Procedure: as §1, §2, §3

[3] = target: T1, Brd3(1) (Homo sapiens, UniProt Q15059); conditions: ITC 30° C., 1% DMSO
T1 construct: Plasmids of the eight single BET bromodomain constructs Brd2(1), Brd2(2), Brd3(1), Brd3(2); His6 (N); made in house; host or cells: E. coli BL21(DE3)
Procedure: (§4) Results obtained were very promising, showing small shifts from 1.2° C. to a maximum of 2.6° C. for all the eight BET wild types and shifts from 5.4° C. to 13.4° C. for all the leucine to alanine mutants.
(§5) For all mutants, protein was titrated at a concentration between 150-200 μM into a solution of the compound at a concentration of 15-20 μM. In the case of the wild types, protein was titrated at a concentration of 350-400 μM into a solution of the compound between 15-20 μM. FIG. 11 is an illustrative example of the curves obtained for the Brd3(1) bromodomain construct and its respective leucine to alanine mutant titrated into compound 11. We can easily observe a hyperbolic shape for the titration of wild type Brd3(1) into compound 11, corresponding to a low affinity interaction, while for Brd3(1)*(Leu070-Ala) we can easily observe a sharp sigmoidal behaviour corresponding to a high affinity interaction. Furthermore, there is a clear difference in the ΔH produced by each interaction. (ΔH=−22 kcal/mol vs. mutant compared to −7 kcal/mol vs. wild type).
as §1
(§6) Reverse titrations were conducted to test the binding of the known ligands and the novel chemical probes to the wild types and the mutants. Experiments were carried out either at 25° C. or 30° C. For strong binders, a concentration of 150-200 μM of the protein was injected into a solution of 15-20 μM compound. […] In cases where the compound was solubilized in dimethyl sulfoxide, DMSO concentration was adjusted to 1% both in the syringe and in the cell.
as §3

[4] = target: T2, Brd3(1)*(Leu070-Ala) (Homo sapiens, UniProt Q15059, L70A); conditions: for Selectivity factor Kd WT/Kd Leu/Ala: 30° C.
T2 construct: Plasmids of the eight single BET bromodomain constructs Brd2(1), Brd2(2), Brd3(1), Brd3(2), Brd4(1), Brd4(2), Brdt(1) and Brdt(2); His6 (N); made in house; host or cells: E. coli BL21(DE3)
Procedure: as §4, §5, §1, §6, §3

[5] = target: T3, brd3(2)L344A (Homo sapiens, UniProt Q15059, L345A); conditions: 30° C.
T3 construct: Plasmids of the eight single BET bromodomain constructs Brd2(1), Brd2(2), Brd3(1), Brd3(2), Brd4(1), Brd4(2), Brdt(1) and Brdt(2); His6 (N); made in house; host or cells: E. coli BL21(DE3)
Procedure: as §4, §5, §1, §6, §3

[6] = target: T4, brd4(1)L094A (Homo sapiens, UniProt O60885, L94A); conditions: 30° C.
T4 construct: Plasmids of the eight single BET bromodomain constructs Brd2(1), Brd2(2), Brd3(1), Brd3(2), Brd4(1), Brd4(2), Brdt(1) and Brdt(2); His6 (N); made in house; host or cells: E. coli BL21(DE3)
Procedure: as §4, §5, §1, §6, §3

[7] = target: T5, brdt(2)L306A (Homo sapiens, UniProt Q58F21, L306A); conditions: 30° C.
T5 construct: Plasmids of the eight single BET bromodomain constructs Brd2(1), Brd2(2), Brd3(1), Brd3(2), Brd4(1), Brd4(2), Brdt(1) and Brdt(2); His6 (N); made in house; host or cells: E. coli BL21(DE3)
Procedure: as §4, §5, §1, §6, §3

T2 sequence (Q15059 34-140 L70A): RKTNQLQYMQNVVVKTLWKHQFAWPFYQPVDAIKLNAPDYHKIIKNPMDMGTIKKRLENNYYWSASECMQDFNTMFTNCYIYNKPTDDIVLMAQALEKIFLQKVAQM
Sequence of Brd2(2)*(Leu383-Ala) (P25440 344-453 L383A limits assumed): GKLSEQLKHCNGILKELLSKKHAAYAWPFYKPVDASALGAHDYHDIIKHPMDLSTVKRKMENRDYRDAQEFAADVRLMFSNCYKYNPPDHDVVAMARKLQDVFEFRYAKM
T3 sequence (Q15059 306-415 L345A): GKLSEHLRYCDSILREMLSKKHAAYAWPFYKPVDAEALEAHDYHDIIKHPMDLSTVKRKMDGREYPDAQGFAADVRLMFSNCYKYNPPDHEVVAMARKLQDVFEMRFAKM
Sequence of Brd2(1)*(Leu110-Ala) (P25440 74-180 L110A limits assumed): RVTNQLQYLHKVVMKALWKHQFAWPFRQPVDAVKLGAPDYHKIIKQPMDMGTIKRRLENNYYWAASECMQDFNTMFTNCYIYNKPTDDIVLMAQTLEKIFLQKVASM
T1 sequence (Q15059 34-140 limits assumed): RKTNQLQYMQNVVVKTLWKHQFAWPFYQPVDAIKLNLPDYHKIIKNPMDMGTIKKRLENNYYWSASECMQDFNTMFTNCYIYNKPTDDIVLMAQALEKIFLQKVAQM

## COC(=O)[C@H](C)[C@@H]1N=C(c2ccc(Cl)cc2)c2cc(OC)ccc2-n2c(C)nnc21 (racemic) [Compound 7, (+−)-methyl (R)-2-((S)-6-(4-chlorophenyl)-8-methoxy-1-methyl-4H-benzo[f][1,2,4]triazolo[4,3-a][1,4]diazepin-4-yl)propanoate]
[1]
  Kd: 17 nM
  ΔH Brd2(1)* (Leu110-Ala): −16780 ± 161.4 cal/mol
[2]
  ΔH Brd2(2)* (Leu383-Ala): -12.61 ± 0.08606 kcal/mol
  Kd: 22 nM and 22.3 nM

## CC[C@@H](C(=O)OC)[C@@H]1N=C(c2ccc(Cl)cc2)c2cc(OC)ccc2-n2c(C)nnc21 (racemic) [Compound 11, (+−)-methyl (R)-2-((S)-6-(4-chlorophenyl)-8-methoxy-1-methyl-4H-benzo[f][1,2,4]triazolo[4,3-a][1,4]diazepin-4-yl)butanoate]
[3]
  ΔH wild type Brd3(1): -7 kcal/mol
[4]; ITC 30° C., 1% DMSO
  ΔH Brd3(1)*(Leu070-Ala): -22 kcal/mol
[4]; brd3(1)L070A vs WT brd2(1)
  Selectivity factor Kd WT/Kd Leu/Ala: 244
[4]; brd3(1)L070A vs WT brd2(2)
  Selectivity factor Kd WT/Kd Leu/Ala: 469
[4]; brd3(1)L070A vs WT brd3(1)
  Selectivity factor Kd WT/Kd Leu/Ala: 190
[4]; brd3(1)L070A vs WT brd3(2)
  Selectivity factor Kd WT/Kd Leu/Ala: 202
[4]; brd3(1)L070A vs WT brd4(1)
  Selectivity factor Kd WT/Kd Leu/Ala: 346
[4]; brd3(1)L070A vs WT brd4(2)
  Selectivity factor Kd WT/Kd Leu/Ala: 273
[4]; brd3(1)L070A vs WT brdt(1)
  Selectivity factor Kd WT/Kd Leu/Ala: 233
[4]; brd3(1)L070A vs WT brdt(2)
  Selectivity factor Kd WT/Kd Leu/Ala: 332
[5]; brd3(2)L344A vs WT brd2(1)
  Selectivity factor Kd WT/Kd Leu/Ala: 135
[5]; brd3(2)L344A vs WT brd2(2)
  Selectivity factor Kd WT/Kd Leu/Ala: 261
[5]; brd3(2)L344A vs WT brd3(1)
  Selectivity factor Kd WT/Kd Leu/Ala: 106
[5]; brd3(2)L344A vs WT brd3(2)
  Selectivity factor Kd WT/Kd Leu/Ala: 112
[5]; brd3(2)L344A vs WT brd4(1)
  Selectivity factor Kd WT/Kd Leu/Ala: 192
[5]; brd3(2)L344A vs WT brd4(2)
  Selectivity factor Kd WT/Kd Leu/Ala: 152
[5]; brd3(2)L344A vs WT brdt(1)
  Selectivity factor Kd WT/Kd Leu/Ala: 130
[5]; brd3(2)L344A vs WT brdt(2)
  Selectivity factor Kd WT/Kd Leu/Ala: 185
[6]; brd4(1)L094A vs WT brd2(1)
  Selectivity factor Kd WT/Kd Leu/Ala: 206
[6]; brd4(1)L094A vs WT brd2(2)
  Selectivity factor Kd WT/Kd Leu/Ala: 396
[6]; brd4(1)L094A vs WT brd3(1)
  Selectivity factor Kd WT/Kd Leu/Ala: 160
[6]; brd4(1)L094A vs WT brd3(2)
  Selectivity factor Kd WT/Kd Leu/Ala: 170
[6]; brd4(1)L094A vs WT brd4(1)
  Selectivity factor Kd WT/Kd Leu/Ala: 292
[6]; brd4(1)L094A vs WT brd4(2)
  Selectivity factor Kd WT/Kd Leu/Ala: 231
[6]; brd4(1)L094A vs WT brdt(1)
  Selectivity factor Kd WT/Kd Leu/Ala: 197
[6]; brd4(1)L094A vs WT brdt(2)
  Selectivity factor Kd WT/Kd Leu/Ala: 281
[7]; brdt(2)L306A vs WT brd2(1)
  Selectivity factor Kd WT/Kd Leu/Ala: 63
[7]; brdt(2)L306A vs WT brd2(2)
  Selectivity factor Kd WT/Kd Leu/Ala: 122
[7]; brdt(2)L306A vs WT brd3(1)
  Selectivity factor Kd WT/Kd Leu/Ala: 49
[7]; brdt(2)L306A vs WT brd3(2)
  Selectivity factor Kd WT/Kd Leu/Ala: 52
[7]; brdt(2)L306A vs WT brd4(1)
  Selectivity factor Kd WT/Kd Leu/Ala: 90
[7]; brdt(2)L306A vs WT brd4(2)
  Selectivity factor Kd WT/Kd Leu/Ala: 71
[7]; brdt(2)L306A vs WT brdt(1)
  Selectivity factor Kd WT/Kd Leu/Ala: 60
[7]; brdt(2)L306A vs WT brdt(2)
  Selectivity factor Kd WT/Kd Leu/Ala: 86
[1]
  Kd: 42.7 ± 7.8 nM
  ΔH Brd2(1)* (Leu110-Ala): −16220 ± 130.9 cal/mol
[1]; brd2(1)L110A vs WT brd2(1)
  Selectivity factor Kd WT/Kd Leu/Ala: 123
[1]; brd2(1)L110A vs WT brd2(2)
  Selectivity factor Kd WT/Kd Leu/Ala: 236
[1]; brd2(1)L110A vs WT brd3(1)
  Selectivity factor Kd WT/Kd Leu/Ala: 96
[1]; brd2(1)L110A vs WT brd3(2)
  Selectivity factor Kd WT/Kd Leu/Ala: 101
[1]; brd2(1)L110A vs WT brd4(1)
  Selectivity factor Kd WT/Kd Leu/Ala: 174
[1]; brd2(1)L110A vs WT brd4(2)
  Selectivity factor Kd WT/Kd Leu/Ala: 138
[1]; brd2(1)L110A vs WT brdt(1)
  Selectivity factor Kd WT/Kd Leu/Ala: 117
[1]; brd2(1)L110A vs WT brdt(2)
  Selectivity factor Kd WT/Kd Leu/Ala: 167
[1]; mutated Brd2(1) vs all other (wild type) bromodomains
  Selectivity against all other bromodomains: ≥ 96 fold
[2]
  ΔH Brd2(2)* (Leu383-Ala): -10.71 ± 0.1028 kcal/mol
  Kd: 21.7 ± 5.6 nM
[2]; brd2(2)L383A vs WT brd2(1)
  Selectivity factor Kd WT/Kd Leu/Ala: 105
[2]; brd2(2)L383A vs WT brd2(2)
  Selectivity factor Kd WT/Kd Leu/Ala: 203
[2]; brd2(2)L383A vs WT brd3(1)
  Selectivity factor Kd WT/Kd Leu/Ala: 82
[2]; brd2(2)L383A vs WT brd3(2)
  Selectivity factor Kd WT/Kd Leu/Ala: 87
[2]; brd2(2)L383A vs WT brd4(1)
  Selectivity factor Kd WT/Kd Leu/Ala: 150
[2]; brd2(2)L383A vs WT brd4(2)
  Selectivity factor Kd WT/Kd Leu/Ala: 118
[2]; brd2(2)L383A vs WT brdt(1)
  Selectivity factor Kd WT/Kd Leu/Ala: 101
[2]; brd2(2)L383A vs WT brdt(2)
  Selectivity factor Kd WT/Kd Leu/Ala: 144

— US20170122958A1, “Enzymes Functional Probes” (University of Dundee, priority 2013, published 2017)
